# Measurements published in paper PMC10787790, “Isatin-tethered halogen-containing acylhydrazone derivatives as monoamine oxidase inhibitor with neuroprotective effect” (Scientific Reports, 2024).
# Columns and labels:
# [1] = tested on: MAO-A; conditions: halogenated pyrazoline, no reference given; cited from earlier work
# [2] = biological target: T1, MAO-B (Homo sapiens, UniProt P27338); test: MAO-B inhibition assay (continuous, benzylamine); conditions: for SI (selectivity index): (IC50 of MAO-A)/(IC50 of MAO-B), MAO-B compared to MAO-A; for remaining activity at 10 µM: read-out: Residual activity at 10 µM (%) MAO-B
# T1 sequence (P27338 1-520): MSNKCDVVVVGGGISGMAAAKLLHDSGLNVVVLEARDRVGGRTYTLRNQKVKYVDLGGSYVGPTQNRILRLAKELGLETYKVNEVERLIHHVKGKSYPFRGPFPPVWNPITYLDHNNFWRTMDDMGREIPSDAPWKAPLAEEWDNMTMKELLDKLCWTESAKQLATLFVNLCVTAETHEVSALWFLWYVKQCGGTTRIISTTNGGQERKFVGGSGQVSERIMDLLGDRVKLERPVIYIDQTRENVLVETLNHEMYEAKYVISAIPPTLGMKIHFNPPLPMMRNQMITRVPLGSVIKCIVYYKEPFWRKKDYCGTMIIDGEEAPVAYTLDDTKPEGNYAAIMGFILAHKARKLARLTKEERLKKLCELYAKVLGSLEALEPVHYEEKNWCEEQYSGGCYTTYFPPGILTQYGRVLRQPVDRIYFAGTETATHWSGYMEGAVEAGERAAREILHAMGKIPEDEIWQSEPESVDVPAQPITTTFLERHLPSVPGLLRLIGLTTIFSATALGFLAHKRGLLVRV
# [3] = biological target: T2, MAO-A (Homo sapiens, UniProt P21397); test: MAO-A inhibition assay (continuous, kynuramine); conditions: for remaining activity at 10 µM: read-out: Residual activity at 10 µM (%) MAO-A
# T2 sequence (P21397 1-527): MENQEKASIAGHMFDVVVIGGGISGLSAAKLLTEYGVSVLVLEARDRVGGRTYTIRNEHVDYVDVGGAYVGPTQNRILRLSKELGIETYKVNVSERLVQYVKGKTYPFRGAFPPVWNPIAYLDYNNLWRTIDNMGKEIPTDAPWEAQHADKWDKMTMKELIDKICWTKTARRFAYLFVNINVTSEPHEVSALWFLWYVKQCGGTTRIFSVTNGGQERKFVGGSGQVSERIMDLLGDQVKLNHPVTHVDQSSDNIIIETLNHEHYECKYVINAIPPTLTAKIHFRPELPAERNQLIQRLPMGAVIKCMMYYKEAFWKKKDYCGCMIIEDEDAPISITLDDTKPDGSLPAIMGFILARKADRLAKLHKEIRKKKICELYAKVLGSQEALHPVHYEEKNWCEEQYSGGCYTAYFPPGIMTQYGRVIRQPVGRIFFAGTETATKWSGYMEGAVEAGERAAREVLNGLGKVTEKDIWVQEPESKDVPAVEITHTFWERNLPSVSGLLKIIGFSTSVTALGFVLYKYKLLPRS
# [4] = Parallel artificial membrane permeability assay (PAMPA), BBB; type: in vitro ADME; conditions: for Experimental Pe: pH 7.4; for Papp: pH 7.4, read-out: Experimental Pe
# Protocol: The blood–brain barrier (BBB) permeation abilities of the four lead molecules were analyzed using the PAMPA method[44],[45]. The detailed procedure is explained in the Supplementary Data.
# Using a microtiter plate with 96 wells and a Millipore filter plate with 96 wells (ipvh, 125 μm thick filter, 0.45 μm pore), which was then saturated with 0.1 mL of n-dodecane, a "sandwich" structure was created in PAMPA. Stock solutions of drug samples in DMSO were created at a 10 mM concentration. The stock solution was diluted in buffer at pH 7.4 before being added to a 96-well filter plate in order to achieve a final sample concentration (0.01, 0.1, and 1 mM) and keep the DMSO concentration at 1% (v/v). The final dilutions were divided into 270 μL for the donor wells and 200 μL of pH 7.4 buffer for the acceptor well. The donor plate was placed on the top of the acceptor filter plate to form a sandwich (comprising of a synthetic lipid membrane in the center, an aqueous receiver on […], and an aqueous donor carrying an analyte on the bottom.). The test substance diffuses from the donor well across the lipid membrane and into the acceptor well. The sandwich is said to have been intact when the penetration occurred. The drug concentration in the reference, donor, and receiver wells was measured using UV spectroscopy. The rate of penetration is calculated using the following expression.
# Log Pe = -ln [1-CA /Equilibrium]/A× (1/VD + 1/VA) × t
# [5] = tested on: SOD; test: Superoxide dismutase (SOD) activity in LPS-induced SH-SY5Y cells; type: cell-based, human; conditions: 10 µM/mL
# [6] = tested on: IL-6; test: IL-6 expression in LPS-induced SH-SY5Y cells; type: cell-based, human
# [7] = biological target: T1, MAO-B; test: Reversibility study by dialysis, MAO-B
# [8] = tested on: GPx; test: Glutathione peroxidase (GPx) activity in LPS-induced SH-SY5Y cells; type: cell-based, human; conditions: 10 µM/mL
# [9] = biological target: T1, MAO-B; test: Enzyme kinetics, Lineweaver-Burk and secondary plots, MAO-B; type: biochemical; design: purchased Sigma-Aldrich
# [10] = tested on: SH-SY5Y cells; test: MTT cytotoxicity assay; type: cell-based, human; conditions: 24 h
# [11] = tested on: ROS; test: ROS assay (DCF) in LPS-treated SH-SY5Y cells; type: cell-based, human
# [12] = tested on: CAT; test: Catalase (CAT) activity in LPS-induced SH-SY5Y cells; type: cell-based, human; conditions: 10 µM/mL
# [13] = tested on: TNF-α; test: TNF-α expression in LPS-induced SH-SY5Y cells; type: cell-based, human
# [14] = tested on: NF-kB; test: NF-kB expression in LPS-induced SH-SY5Y cells; conditions: LPS 1 µg/mL 2 h, compound 24 h, SH-SY5Y
# [15] = LPS 1 µg/mL 2 h, compound 24 h, SH-SY5Y
smiles,measurement,setting,value
CCOc1ccc(C2=NNC(c3ccc(Br)cc3)C2)cc1 (centres unmarked) [EH8],IC50,[1],4.31 µM
O=C1Nc2ccc(Br)cc2/C1=N/NC(=O)c1ccccc1 [IS1],IC50,[2],0.42 ± 0.028 µM
same,SI (selectivity index),[2],> 95.24
same,remaining activity at 10 µM,[2],22 ± 2.75%
same,IC50,[3],> 40 µM
same,remaining activity at 10 µM,[3],83.1 ± 2.34%
O=C1Nc2ccc(Br)cc2/C1=N/NC(=O)c1ccc(Cl)cc1 [IS2],IC50,[2],0.269 ± 0.004 µM
same,SI (selectivity index),[2],34.03
same,remaining activity at 10 µM,[2],1.18 ± 2.04%
same,IC50,[3],9.16 ± 0.324 µM
same,remaining activity at 10 µM,[3],46.9 ± 2.73%
O=C1Nc2ccc(Br)cc2/C1=N/NC(=O)c1ccc(Br)cc1 [IS3],IC50,[2],0.514 ± 0.023 µM
same,SI (selectivity index),[2],4.64
same,remaining activity at 10 µM,[2],1.04 ± 0.23%
same,IC50,[3],2.385 ± 0.018 µM
same,remaining activity at 10 µM,[3],29.5 ± 0.34%
O=C1Nc2ccc(Br)cc2/C1=N/NC(=O)c1ccc(F)cc1 [IS4],IC50,[2],7.28 ± 1.72 µM
same,SI (selectivity index),[2],4.51
same,remaining activity at 10 µM,[2],42.5 ± 8.93%
same,IC50,[3],32.85 ± 0.134 µM
same,remaining activity at 10 µM,[3],70.1 ± 1.93%
O=C1Nc2ccccc2/C1=N/NC(=O)c1ccc(Cl)cc1 [IS6],CNS/BBB permeability in words,[4],high permeability and CNS bioavailability
same,Prediction (CNS permeation class),[4],CNS+ (Pe (10^−6 cm/s) > 4.00: CNS + (high permeation))
same,Experimental Pe,[4],> 4 ×10⁻⁶ cm/s
same,Papp,[4],4.86 ± 0.26 ×10⁻⁶ cm/s
O=C1Nc2ccccc2/C1=N/NC(=O)c1ccc(Br)cc1 [IS7],IC50,[2],0.082 ± 0.01 µM
same,SI (selectivity index),[2],233.85
same,remaining activity at 10 µM,[2],3.2 ± 0.77%
same,Fold higher MAO-B inhibition than IS5,[2]; relative to basic compound IS5,50.4 ×
same,IC50,[3],19.2 ± 5.96 µM
same,remaining activity at 10 µM,[3],50.8 ± 7.29%
same,SOD (cellular anti-oxidant enzyme) effect,[5],enhancing the enzyme activity
same,CNS/BBB permeability in words,[4],high permeability and CNS bioavailability
same,Prediction (CNS permeation class),[4],CNS+ (Pe (10^−6 cm/s) > 4.00: CNS + (high permeation))
same,Experimental Pe,[4],> 4 ×10⁻⁶ cm/s
same,Papp,[4],5.02 ± 0.19 ×10⁻⁶ cm/s
same,IL-6 level vs LPS-treated group,[6]; [15],significantly (p < 0.0001) reduced
same,IL-6 level compared to IS13 and IS15,[6]; LPS-treated cell lines,significantly decreased
same,"MAO-B relative activity, dialyzed (AD)","[7]; […] IC50, 30 min pre-incubation, dialyzed",72.89%
same,"MAO-B relative activity, undialyzed (AU)","[7]; […] IC50, 30 min pre-incubation, undialyzed",28.65%
same,Reversibility of MAO-B inhibition,[7]; dialysis,reversible-type inhibitors
same,GPx (cellular anti-oxidant enzyme) effect,[8],enhancing the enzyme activity
same,Type of MAO-B inhibition,[9]; LB plot,competitive
same,Ki,[9]; secondary plot of LB slopes vs inhibitor concentration,0.044 ± 0.002 µM
same,Cell viability at 100 μM,[10]; 100 μM,remarkably decreased cell viability
same,IC50,[10]; Homo sapiens,97.2 µM
same,DCF intensity decrease at 10 µM,"[11]; 10 µM/mL (10 µM), vs LPS-induced cells",effective DCF intensity decrease
same,DCF expression (ROS) vs cells treated with LPS alone,[11]; LPS-induced SH-SY5Y,significantly inhibited (p < 0.0001)
same,CAT (cellular anti-oxidant enzyme) effect,[12],enhancing the enzyme activity
same,TNF-alpha level vs LPS-treated group,[13]; [15],significantly (p < 0.0001) reduced
same,TNF-alpha level compared to IS13 and IS15,[13]; LPS-treated cell lines,significantly decreased
same,NF-kB level vs LPS-treated group,[14],significantly (p < 0.0001) reduced
O=C1Nc2ccccc2/C1=N/NC(=O)c1ccc(F)cc1 [IS8],IC50,[2],25.5 ± 2.03 µM
same,remaining activity at 10 µM,[2],67.4 ± 7.8%
same,IC50,[3],35 µM
same,remaining activity at 10 µM,[3],69.7 ± 3.22%
